pIC50: −log10 of the molar value. Where “and” joins values, the source holds several entries; their conditions need not be identical. Equal values may be shown once. Read-outs that look alike come from different tables or passages of the source.
Experiments:
sVEGFR-2 [1] = conditions: by day 27; 1 mg daily cohort; cited from earlier work
advanced HCC = assay: phase 1b/2 study, antineoplastic efficacy (RECIST 1.1, PFS, OS); assay type: in vivo, patients
Description: This was a phase 1b/2, open-label, single-arm multicentre clinical trial. Subjects were accrued at Roswell Park Comprehensive Cancer Centre (RPCI) and Case Comprehensive Cancer Centre. The respective institutional review board (IRB) approved the protocol at each site. The study was conducted according to the principles of the Declaration of Helsinki, the International Conference on Harmonisation and the Guidelines for Good Clinical Practice. All patients provided written informed consent. The trial was registered with ClinicalTrials.gov (NCT01835223).
Secondary objectives included determination of safety and the PK/PD of tivozanib in patients with advanced HCC. The primary endpoint was PFS at 24 weeks. PFS and not ORR were selected because at the time of study inception PFS or time to progression were acceptable primary efficacy endpoints in early phase HCC studies in view of very low ORR with anti-VEGFR agents. Patients who remained alive and without evidence of disease progression per RECIST 1.1 for at least 24 weeks after enrolment were considered as PFS responders. Secondary endpoints were AEs by CTCAE v4.0, steady state PK, ORR, OS, change in HBV or HCV viral load, serum α-fetoprotein (AFP), and changes in soluble VEGFR-2 (sVEGFR-2).
Using the 3+3 design, the MTD was the DL with probability of DLT 33% or higher. With three dose levels, between 6 and 18 patients were required to complete the phase 1b portion. In terms of antineoplastic efficacy, the true progression rate of less than p0 = 0.50 was considered unacceptable and evidence of such will deem the treatment not worthy of further study. The null and alternative hypotheses tested were H0: p = p0 vs. H1: p > p0. With this two-stage design, a potential total of 37 patients was required to achieve 80% power to detect a difference of at least 20% with a type I error of 5%. Using a two-stage design, a total of 19 patients were planned to be enrolled initially, including the phase 1b patients treated at the MTD/RP2D. If nine or fewer PFS responses were observed, the therapy would be deemed ineffective and the study would end. Otherwise, an additional 18 patients would be enrolled. If 23 or fewer PFS responses are observed in the total efficacy population, therapy would be deemed ineffective; otherwise, it will be concluded that the therapy is promising. The differences on outcomes between study groups were compared by non-parametric Kruskal–Wallis test and Fisher’s/χ^2 test. OS and PFS were estimated by the Kaplan–Meier method and compared by log-rank test. All tests were two sided and performed at a nominal significance level of 0.05. SAS version 9.4 (SAS Institute, Cary, NC) is used for statistical analyses.

[2] = healthy volunteers; cited from earlier work
[3] = background statement; cited from earlier work
[4] = cited from earlier work; for mean AUC0–24 / median tmax: all solid tumours, 1 mg
sVEGFR-2 [5] = assay: phase 1b/2 study, pharmacodynamics: plasma sVEGFR-2 by ELISA; assay type: in vivo, Human; conditions: for sVEGFR-2, median percent decrease from baseline: day 15
Description: For sVEGFR-2, plasma EDTA samples (220 μL) were analysed in duplicate using a commercially available enzyme-linked immunosorbent assay (Quantikine® ELISA Human VEGFR-2/KDR immunoassay, R&D Systems® Inc., Minneapolis, MN) that was validated according to the FDA guidance. A Tomtec Quadra 4 (Tomtec Inc., Hamden, CT) liquid handling robot was used to transfer all solutions to the 96-well plate to eliminate time-dependent variability associated with manual pipetting. After the addition of the Stop Solution in the final step, the absorbance of each well was measured at 450 and 540 nm on a Synergy HT plate reader (BioTek Instruments, Winooski, VT). The readings at 540 nm were subtracted from the absorbance readings at 450 nm to correct for any optical imperfections in the 96-well plate. Sample concentrations were back-calculated against calibration curves (80.0–5000 pg/mL) that were generated based on a 4-parameter fit of absorbance vs. nominal concentrations (pg/mL) using the Gen 5 software (BioTek Instruments).

PDGFRβ = assay: in vitro inhibition of PDGFRβ phosphorylation
[6] = test system: metastatic renal cell carcinoma; conditions: TIVO-1; cited from earlier work
[7] = phase 1b/2 study, safety, DLT and MTD/RP2D (CTCAE v4.0)
Description: The RP2D was defined as the MTD.
(§1) The treatment schedule was modified as there was concern on tolerability of longer dosing in patients with underlying cirrhosis. […] Study treatment was continued until disease progression or unacceptable toxicity.
(§2) Safety assessments were done at baseline, on cycle 1 days 1 and 15, and on day 1 of each cycle thereafter. Tumour assessments were performed by computed tomography or magnetic resonance imaging at baseline and every 8 weeks thereafter. Confirmatory imaging was performed within 6 weeks in patients with complete response or partial response. AEs were assessed using the National Cancer Institute Common Terminology Criteria for Adverse Events (CTCAE) v4.0. Blood sample collection for pharmacokinetic (PK) and pharmacodynamic (PD) analysis was performed on cycle 1 days 1 and 15 pre-dose as well as 2 and 4 h post dose.

[8] = cited from earlier work
[9] = in vivo
Description: The RP2D was defined as the MTD.
as §1, §2

c-kit = conditions: in vitro; read-out: half-maximal inhibitory concentration, c-kit phosphorylation; cited from earlier work
[10] = RP2D 1 mg, efficacy population N = 19
[11] = all solid tumours, 1 mg dose level

For `COc1cc2nccc(Oc3ccc(NC(=O)Nc4cc(C)on4)c(Cl)c3)c2cc1OC` [tivozanib], the “sVEGFR-2 decrease from baseline” value (sVEGFR-2 [1]) is given as 28%, the “24-week PFS probability” value (advanced HCC; Kaplan–Meier, N = 19) is given as 58% and the “1-year OS rate” value (advanced HCC; N = 19) is given as 40%. For the same compound, the “2-year OS rate” value (advanced HCC; N = 19) was 30%, the “overall disease control rate” value (advanced HCC; RECIST 1.1, N = 19) was 63% and the “PFS responders at 24 weeks (6-month PFS)” value (advanced HCC; RP2D 1 mg, N = 19) was 47.3%. For the same compound, the “overall response rate (PR, RECIST 1.1)” value (advanced HCC; RP2D 1 mg, N = 19) was 21%, the “median OS” value (advanced HCC; [10]) was 9 months and 9.0 months and the “median PFS” value (advanced HCC; [10]) was 24 weeks. For the same compound, the “difference in total drug exposure with food consumption” value [2] was “did not show a difference”, the “liver toxicities or tissue accumulation” value [3] was “no associated liver toxicities or tissue accumulation” and the “mean AUC0–24” value ([4]; multiple doses) was 856 ng·h/mL. The median tmax ([4]; multiple doses) was 4.01 h, the “mean AUC0–24” value ([4]; single dose) was 131.2 ng·h/mL and the median tmax ([4]; single dose) was 6.01 h. The half-life [4] was 3.7 to 4.7 days, the “sVEGFR-2, median pre-dose level” value (sVEGFR-2 [5]; cycle 1 day 1) was 8.64 µg/L and the “sVEGFR-2, median pre-dose level” value (sVEGFR-2 [5]; cycle 1 day 15) was 5.37 µg/L. For the same compound, the “sVEGFR-2, median percent decrease from baseline” value (sVEGFR-2 [5]; PFS responders) was 32.4%, the “sVEGFR-2, median percent decrease from baseline” value (sVEGFR-2 [5]; PR by RECIST 1.1) was 30.9% and the “sVEGFR-2, median percent decrease from baseline” value (sVEGFR-2 [5]; SD by RECIST 1.1) was 40.5%. For the same compound, the “sVEGFR-2, median percent decrease from baseline” value (sVEGFR-2 [5]; all patients) was 31.1%, the “sVEGFR-2, median percent decrease from baseline” value (sVEGFR-2 [5]; not PFS responders) was 30.1% and the “sVEGFR-2, median percent decrease from baseline” value (sVEGFR-2 [5]; progressive disease (PD) by RECIST 1.1) was 27.4%. For the same compound, the “activity against PDGFRβ, times higher compared to lenvatinib” value (PDGFRβ) was 197 times, the “activity against PDGFRβ, times higher compared to sorafenib” value (PDGFRβ) was 46 times and the “overall response rate (ORR)” value [6] was 33.1%. For the same compound, the “progression-free survival (PFS)” value [6] was 11.9 months, the “deaths due to toxicity” value ([7]; 27 patients) was “No deaths due to toxicity” and the MTD/RP2D ([7]; per os once daily, 21 days on–7 days off, advanced HCC) was 1 mg. The viral loads ([7]; two HBV-positive and three HCV-positive patients) was “remained stable”, the “Dry skin, any grade” value [8, 11] was 28% and the “Fatigue, any grade” value [8, 11] was 55%. The “Fatigue, grade 3–4” value [8, 11] was 6%, the “Hypertension, any grade” value [8, 11] was 39% and the “Hypertension, grade 3–4” value [8, 11] was 28%. For the same compound, the “Palmar–plantar erythrodysesthesia, any grade” value [8, 11] was 22%, the “maximum-tolerated dose (MTD) and RP2D” value ([8]; once daily, 4 weeks on–2 weeks off, advanced refractory solid malignancies) was 1.5 mg and the “Decreased appetite, grade 3 and 4” value ([9]; human) was 3.7%. For the same compound, the “Diarrhoea, grade 3–4” value ([9]; human) was 0%, the “Dysphonia, grade 3 and 4” value ([9]; human) was 0% and the “Fatigue, grade 3–4” value ([9]; human) was 26%. For the same compound, the “Hypertension, grade 3 and 4” value ([9]; human) was 11%, the “Increased bilirubin, grade 3 and 4” value ([9]; human) was 7.4% and the “Nausea, grade 3 and 4” value ([9]; human) was 0%. For the same compound, the “PPEDS (palmar–plantar erythrodysesthesia syndrome), Total” value ([9]; human) was 11%, the “PPEDS, Total” value ([9]; human) was 3 n and the “Palmar–plantar erythrodysesthesia, grade 3 and 4” value ([9]; human) was 3.7%. For the same compound, the “Stomatitis, grade 3 and 4” value ([9]; human) was 0%, the “Vomiting, grade 3 and 4” value ([9]; human) was 0% and the “dose reductions for toxicity” value [9] was “six”. For the same compound, the “permanently discontinued from study treatment for toxicity” value [9] was “four”, the tolerability [9] was “well tolerated” and the pIC50 (c-kit) was 8.79.

Reference: publication PMC7109127 (British Journal of Cancer, 2020)
